The source of these data is patent publication US12485132B2, “GPX4 inhibitors and senolytic compounds and uses thereof” (Rubedo Life Sciences, Inc., priority 2023, dated 2025).

The term IC50 denotes the concentration at which inhibition is half-maximal.

For the experiment, the system named is senescent HEPG2 cells. As to the kind of experiment: Senescence assay: viability of senescent HEPG2 cells. Format: cell-based. The conditions noted are these: Homo sapiens, 24-72 hours incubation, viability by CellTiter-Glo or XTT, read-out: Absolute IC50 average HEPG2_SEN IC50. The method, then:
Cells were maintained in DMEM media (high glucose, 4 mM L-glutamine, no sodium pyruvate) supplemented with 10% fetal bovine serum in a humidified incubator at 37° C. with 5% carbon dioxide. Senescence was induced via treatment with a sublethal concentration of chemotherapy (bleomycin, gemcitabine, doxorubicin, 5-fluorouridine), followed by a rest period without chemotherapy similarly to what is reported by others in the field (e.g., Aoshiba et al., 2003 Eur Respir J 22:436-443). Senescence was qualified by low EdU (5-ethynyl-2′-deoxyuridine) incorporation and high SA-β-Gal (senescence-associated beta-galactosidase) staining compared to proliferating untreated cells. Senescent cells were plated into 96-well plates at a density of 5-15,000 cells/well. The next day, compounds were added in duplicate across ten different concentrations spanning roughly four Log10 units. Cells were incubated with the compounds for 24-72 hours, at which point viability was quantified using CellTiter-Glo (Promega) or XTT (R&D Systems). The viability for treated cells was determined relative to untreated control cells. The log of the compound concentration vs. normalized mean viability was fit to a four parameters Hill function with variable slope. The bottom was constrained to be greater than zero. The X mean value for Y=50 was interpolated to determine the absolute IC50. The results in Table 2 indicate that many of the compounds are active in cells and can induce a dose dependent decrease in the viability of senescent HEPG2 and A549 cells.
For `C#CC(F)(F)[C@]1(O)CC[C@H]2[C@@H]3CCC4=C/C(=N/OCCOC)CCC4=C3[C@@H](c3ccc(C4CC4)cc3)C[C@@]21C` [Compound 3, (8S,11R,13S,14S,17S,E)-11-(4-cyclopropylphenyl)-17-(1,1-difluoroprop-2-yn-1-yl)-17-hydroxy-13-methyl-1,2,6,7,8,11,12,13,14,15,16,17-dodecahydro-3H-cyclopenta[a]phenanthren-3-one O-(2-methoxyethyl)oxime], the IC50 is 10 to 100 nM.

On to `C#CC(F)(F)[C@]1(O)CC[C@H]2[C@@H]3CCC4=C/C(=N\OCCOC)CCC4=C3[C@@H](c3ccc(C4CC4)cc3)C[C@@]21C` [Compound 2, (8S,11R,13S,14S,17S,Z)-11-(4-cyclopropylphenyl)-17-(1,1-difluoroprop-2-yn-1-yl)-17-hydroxy-13-methyl-1,2,6,7,8,11,12,13,14,15,16,17-dodecahydro-3H-cyclopenta[a]phenanthren-3-one O-(2-methoxyethyl)oxime], for which the IC50 lay in the range of 10 to 100 nM.

On to `C#CC(F)(F)[C@]1(O)CC[C@H]2[C@@H]3CCC4=C/C(=N/NC(=O)COC)CCC4=C3[C@H](c3ccc(C4CC4)cc3)C[C@@]21C` [Compound 36, N′-((8S,11S,13S,14S,17S,E)-11-(4-cyclopropylphenyl)-17-(1,1-difluoroprop-2-yn-1-yl)-17-hydroxy-13-methyl-1,2,6,7,8,11,12,13,14,15,16,17-dodecahydro-3H-cyclopenta[a]phenanthren-3-ylidene)-2-methoxyacetohydrazide], for which the IC50 was in the range of 0.1 to 10 nM.

For the compound `C#CC(F)(F)[C@]1(O)CC[C@H]2[C@@H]3CCC4=C/C(=N/NC(N)=O)CCC4=C3[C@H](c3ccc(C4CC4)cc3)C[C@@]21C` [Compound 41, (E)-2-((8S,11S,13S,14S,17S)-11-(4-cyclopropylphenyl)-17-(1,1-difluoroprop-2-yn-1-yl)-17-hydroxy-13-methyl-1,2,6,7,8,11,12,13,14,15,16,17-dodecahydro-3H-cyclopenta[a]phenanthren-3-ylidene)hydrazine-1-carboxamide], the IC50 was in the range of 0.1 to 10 nM.

In the case of `C#CC(F)(F)[C@]1(O)CC[C@H]2[C@@H]3CCC4=C/C(=N/O[C@@H]5O[C@@H](C)[C@@H](O)[C@@H](O)[C@@H]5O)CCC4=C3[C@@H](c3ccc(C4CC4)cc3)C[C@@]21C` [Compound 20, (8S,11R,13S,14S,17S,E)-11-(4-cyclopropylphenyl)-17-(1,1-difluoroprop-2-yn-1-yl)-17-hydroxy-13-methyl-1,2,6,7,8,11,12,13,14,15,16,17-dodecahydro-3H-cyclopenta[a]phenanthren-3-one O-((2S,3S,4R,5S,6S)-3,4,5-trihydroxy-6-methyltetrahydro-2H-pyran-2-yl) oxime], the IC50 lay in the range of 0.1 to 10 nM.

In the case of `C#CC(F)(F)[C@]1(O)CC[C@H]2[C@@H]3CCC4=C/C(=N/OCCOCCOCCOC)CCC4=C3[C@@H](c3ccc(C4CC4)cc3)C[C@@]21C` [Compound 15, (8S,11R,13S,14S,17S,E)-11-(4-cyclopropylphenyl)-17-(1,1-difluoroprop-2-yn-1-yl)-17-hydroxy-13-methyl-1,2,6,7,8,11,12,13,14,15,16,17-dodecahydro-3H-cyclopenta[a]phenanthren-3-one O-(2-(2-(2-methoxyethoxy)ethoxy)ethyl)oxime], the IC50 was in the range of 10 to 100 nM.

As for `C#CC(F)(F)[C@]1(O)CC[C@H]2[C@@H]3CCC4=C/C(=N\OCCOCCO)CCC4=C3[C@@H](c3ccc(C4CC4)cc3)C[C@@]21C` [Compound 11, (8S,11R,13S,14S,17S,Z)-11-(4-cyclopropylphenyl)-17-(1,1-difluoroprop-2-yn-1-yl)-17-hydroxy-13-methyl-1,2,6,7,8,11,12,13,14,15,16,17-dodecahydro-3H-cyclopenta[a]phenanthren-3-one O-(2-(2-hydroxyethoxy)ethyl)oxime], the IC50 lay within 0.1 to 10 nM.

On to `C#CC(F)(F)[C@]1(O)CC[C@H]2[C@@H]3CCC4=C/C(=N/N)CCC4=C3[C@H](c3ccc(C4CC4)cc3)C[C@@]21C` [Compound 27, (8S,11S,13S,14S,17S,E)-11-(4-cyclopropylphenyl)-17-(1,1-difluoroprop-2-yn-1-yl)-3-hydrazineylidene-13-methyl-2,3,6,7,8,11,12,13,14,15,16,17-dodecahydro-1H-cyclopenta[a]phenanthren-17-ol], for which the IC50 was 10 to 100 nM.

With `C#CC(F)(F)[C@]1(O)CC[C@H]2[C@@H]3CCC4=C/C(=N/NC(=O)CO)CCC4=C3[C@H](c3ccc(C4CC4)cc3)C[C@@]21C` [Compound 37, N′-((8S,11S,13S,14S,17S,E)-11-(4-cyclopropylphenyl)-17-(1,1-difluoroprop-2-yn-1-yl)-17-hydroxy-13-methyl-1,2,6,7,8,11,12,13,14,15,16,17-dodecahydro-3H-cyclopenta[a]phenanthren-3-ylidene)-2-hydroxyacetohydrazide], the IC50 lay within 0.1 to 10 nM.

Consider `C#CC(F)(F)[C@]1(O)CC[C@H]2[C@@H]3CCC4=C/C(=N/OCCOCCO)CCC4=C3[C@@H](c3ccc(C4CC4)cc3)C[C@@]21C` [Compound 12, (8S,11R,13S,14S,17S,E)-11-(4-cyclopropylphenyl)-17-(1,1-difluoroprop-2-yn-1-yl)-17-hydroxy-13-methyl-1,2,6,7,8,11,12,13,14,15,16,17-dodecahydro-3H-cyclopenta[a]phenanthren-3-one O-(2-(2-hydroxyethoxy)ethyl)oxime], for which the IC50 is 0.1 to 10 nM.

As to `C#CC(F)(F)[C@]1(O)CC[C@H]2[C@@H]3CCC4=C/C(=N\O[C@H]5C[C@H](O)[C@H](O)[C@H](C)O5)CCC4=C3[C@H](c3ccc(C4CC4)cc3)C[C@@]21C` [Compound 6, (8S,11S,13S,14S,17S,Z)-11-(4-cyclopropylphenyl)-17-(1,1-difluoroprop-2-yn-1-yl)-17-hydroxy-13-methyl-1,2,6,7,8,11,12,13,14,15,16,17-dodecahydro-3H-cyclopenta[a]phenanthren-3-one O-((2S,4S,5S,6S)-4,5-dihydroxy-6-methyltetrahydro-2H-pyran-2-yl) oxime], the IC50 is 0.1 to 10 nM.

`C#CC(F)(F)[C@]1(O)CC[C@H]2[C@@H]3CCC4=C/C(=N/NC(=O)O[C@@H]5O[C@H](COC(C)=O)[C@H](OC(C)=O)[C@H](OC(C)=O)[C@H]5OC(C)=O)CCC4=C3[C@H](c3ccc(C4CC4)cc3)C[C@@]21C` [Compound 28, (2R,3S,4S,5R,6S)-2-(acetoxymethyl)-6-((2-((8S,11S,13S,14S,17S,E)-11-(4-cyclopropylphenyl)-17-(1,1-difluoroprop-2-yn-1-yl)-17-hydroxy-13-methyl-1,2,6,7,8,11,12,13,14,15,16,17-dodecahydro-3H-cyclopenta[a]phenanthren-3-ylidene)hydrazine-1-carbonyl)oxy)tetrahydro-2H-pyran-3,4,5-triyl triacetate]: the IC50 lay in the range of 10 to 100 nM.

As to `C#CC(F)(F)[C@]1(O)CC[C@H]2[C@@H]3CCC4=C/C(=N\OCCOCCOCCOC)CCC4=C3[C@@H](c3ccc(C4CC4)cc3)C[C@@]21C` [Compound 14, (8S,11R,13S,14S,17S,Z)-11-(4-cyclopropylphenyl)-17-(1,1-difluoroprop-2-yn-1-yl)-17-hydroxy-13-methyl-1,2,6,7,8,11,12,13,14,15,16,17-dodecahydro-3H-cyclopenta[a]phenanthren-3-one O-(2-(2-(2-methoxyethoxy)ethoxy)ethyl)oxime], the IC50 was in the range of 0.1 to 10 nM.

Regarding `C#CC(F)(F)[C@]1(O)CC[C@H]2[C@@H]3CCC4=C/C(=N/O[C@H]5C[C@H](O)[C@H](O)[C@H](C)O5)CCC4=C3[C@H](c3ccc(C4CC4)cc3)C[C@@]21C` [Compound 5, (8S,11S,13S,14S,17S,E)-11-(4-cyclopropylphenyl)-17-(1,1-difluoroprop-2-yn-1-yl)-17-hydroxy-13-methyl-1,2,6,7,8,11,12,13,14,15,16,17-dodecahydro-3H-cyclopenta[a]phenanthren-3-one O-((2S,4S,5S,6S)-4,5-dihydroxy-6-methyltetrahydro-2H-pyran-2-yl) oxime], the IC50 lay within 10 to 100 nM.

With `C#CC(F)(F)[C@]1(O)CC[C@H]2[C@@H]3CCC4=C/C(=N/NC(=O)O[C@@H]5O[C@@H](C)[C@@H](OC(C)=O)[C@@H](OC(C)=O)[C@@H]5OC(C)=O)CCC4=C3[C@H](c3ccc(C4CC4)cc3)C[C@@]21C` [Compound 30, (2S,3S,4R,5R,6S)-2-((2-((8S,11S,13S,14S,17S,E)-11-(4-cyclopropylphenyl)-17-(1,1-difluoroprop-2-yn-1-yl)-17-hydroxy-13-methyl-1,2,6,7,8,11,12,13,14,15,16,17-dodecahydro-3H-cyclopenta[a]phenanthren-3-ylidene)hydrazine-1-carbonyl)oxy)-6-methyltetrahydro-2H-pyran-3,4,5-triyl triacetate], the IC50 lay in the range of 0.1 to 10 nM.

Take `C#CC(F)(F)[C@]1(O)CC[C@H]2[C@@H]3CCC4=CC(=NOCCOCCOCCOCCNC(=O)CCCCC5SCC6NC(=O)NC65)CCC4=C3[C@@H](c3ccc(C4CC4)cc3)C[C@@]21C` (some centres unmarked) [compound 21]: the IC50 fell in the range of 0.1 to 10 nM.

On to `C#CC(F)(F)[C@]1(O)CC[C@H]2[C@@H]3CCC4=C/C(=N/NC(=O)CN)CCC4=C3[C@H](c3ccc(C4CC4)cc3)C[C@@]21C` [Compound 35, 2-amino-N′-((8S,11S,13S,14S,17S,E)-11-(4-cyclopropylphenyl)-17-(1,1-difluoroprop-2-yn-1-yl)-17-hydroxy-13-methyl-1,2,6,7,8,11,12,13,14,15,16,17-dodecahydro-3H-cyclopenta[a]phenanthren-3-ylidene)acetohydrazide], for which the IC50 was 0.1 to 10 nM.
